System: Colon cancer organoid
Assay: Targeting of F14 CAF-induced therapy resistance in O23 CRC organoid-stroma co-culture. Cell viability is reported with SN-38.
Type: functional, Homo sapiens
Conditions: Homo sapiens, Concentration 10 uM; read-out: Cell Viability

SMILES | viability at 10 µM [%]
Cn1nc(C(=O)NCc2ccc(C(=O)O)cc2)cc1-c1ccc2[nH]ccc2c1 [BI 4395] | 77.4
CCNC(=O)c1cc2c(N3CCOC[C@@H]3C)ccnc2n1C | 84.1
CN(C)CCCOc1ccc(-c2cc(NCCCn3cccn3)nc(S(C)(=O)=O)n2)cc1 | 1.65
Cc1sc2c(c1C)C(c1ccc(Cl)cc1)=N[C@@H](CC(=O)OC(C)(C)C)c1nnc(C)n1-2 | 53.4
COc1cc(-c2cn(C)c(=O)c3cnccc23)c(OC)cc1CN(C)C | 44.2
O=C(O)c1cc(-c2ccc(C3CCNCC3)cc2)c2ccc(-c3ccc(C(F)(F)F)cc3)cc2c1 | 60.3
COc1ccc2c(c1)O[C@H](c1ccc(OC)c(OC)c1)C[C@@H]2NC(=O)C1(c2ccc3c(c2)OC(F)(F)O3)CC1 [A-1596584] | 59.1
Cn1cncc1[C@@](O)(COc1ccc(C#N)cc1-c1ccc(OC(F)(F)F)cc1)c1ccc(C#N)cc1 [A-108] | 112
CCN(C(=O)CO)[C@H]1CN(/C(=N\C#N)Nc2cccc(OC(F)F)c2)N=C1c1ccc(Cl)c(Cl)c1 | 115
Cc1sc2c(c1C)C(c1ccc(Cl)cc1)=N[C@@H](CC(=O)NCCCCCCCCNC(=O)COc1cccc3c1C(=O)N(C1CCC(=O)NC1=O)C3=O)c1nnc(C)n1-2 (stereo not given in full) | 4.21
COc1cccc(CNC(=O)c2nc3scc(CN(C)Cc4ccccc4)c3c(=O)[nH]2)c1 [T-26f] | 67.3
CN1CCN(c2cnc3c(C4CCN(C(=O)c5ccc(OC(F)(F)F)cc5N)CC4)ncnc3c2)CC1 [BAY-885] | 78
CC1=C(C#N)C(c2ccc3[nH]nc(C)c3c2)C(C#N)=C(C)N1 [BAY-474] | 81.4
CC(C)(O)c1cncc(-c2nc3ccc(F)cc3n2C2CC2)c1 [MSD-CYP11B2] | 94.9
COc1ccccc1C(=O)Nc1cc2c(cc1N1CCCC1)n(C)c(=O)n2C | 84.2
Cc1cnc(-c2cc(Cl)ccc2F)cc1-n1c(=O)n(CC(N)=O)c2ccccc21 [Al11] | 66.2
CN(C)c1ncnc(-c2ccc3nc(Nc4cc(CN5CCN(C(=O)CC(F)(F)F)CC5)ccn4)[nH]c3c2)c1Cl [BAY-440] | 92.8
O=C(NCC(=O)N1CCCC1)Nc1ccc2cnccc2c1 | 39
O=C(NNS(=O)(=O)c1ccccc1F)c1cc(F)cc(-c2ccccn2)c1 [WM-1119] | 57.2
CSc1cccnc1N1CCN(Cc2nc3ccccc3[nH]2)CC1 [A-769] | 103

System: Colon cancer organoid
Assay: Targeting of F14 CAF-induced therapy resistance in O23 CRC organoid-stroma co-culture. Cell viability is reported with Gefitinib.
Type: functional, Homo sapiens
Conditions: Homo sapiens, Concentration 10 uM; read-out: Cell Viability

SMILES | viability at 10 µM [%]
Cn1nc(C(=O)NCc2ccc(C(=O)O)cc2)cc1-c1ccc2[nH]ccc2c1 [BI 4395] | 52.8
CCNC(=O)c1cc2c(N3CCOC[C@@H]3C)ccnc2n1C | 38.3
CN(C)CCCOc1ccc(-c2cc(NCCCn3cccn3)nc(S(C)(=O)=O)n2)cc1 | 1.76
Cc1sc2c(c1C)C(c1ccc(Cl)cc1)=N[C@@H](CC(=O)OC(C)(C)C)c1nnc(C)n1-2 | 35.6
COc1cc(-c2cn(C)c(=O)c3cnccc23)c(OC)cc1CN(C)C | 31.8
O=C(O)c1cc(-c2ccc(C3CCNCC3)cc2)c2ccc(-c3ccc(C(F)(F)F)cc3)cc2c1 | 47.6
COc1ccc2c(c1)O[C@H](c1ccc(OC)c(OC)c1)C[C@@H]2NC(=O)C1(c2ccc3c(c2)OC(F)(F)O3)CC1 [A-1596584] | 48.5
Cn1cncc1[C@@](O)(COc1ccc(C#N)cc1-c1ccc(OC(F)(F)F)cc1)c1ccc(C#N)cc1 [A-108] | 69.3
CCN(C(=O)CO)[C@H]1CN(/C(=N\C#N)Nc2cccc(OC(F)F)c2)N=C1c1ccc(Cl)c(Cl)c1 | 54.9
Cc1sc2c(c1C)C(c1ccc(Cl)cc1)=N[C@@H](CC(=O)NCCCCCCCCNC(=O)COc1cccc3c1C(=O)N(C1CCC(=O)NC1=O)C3=O)c1nnc(C)n1-2 (stereo not given in full) | 5.19
COc1cccc(CNC(=O)c2nc3scc(CN(C)Cc4ccccc4)c3c(=O)[nH]2)c1 [T-26f] | 45.7
CN1CCN(c2cnc3c(C4CCN(C(=O)c5ccc(OC(F)(F)F)cc5N)CC4)ncnc3c2)CC1 [BAY-885] | 59.7
CC1=C(C#N)C(c2ccc3[nH]nc(C)c3c2)C(C#N)=C(C)N1 [BAY-474] | 22.9
CC(C)(O)c1cncc(-c2nc3ccc(F)cc3n2C2CC2)c1 [MSD-CYP11B2] | 79.5
COc1ccccc1C(=O)Nc1cc2c(cc1N1CCCC1)n(C)c(=O)n2C | 79
Cc1cnc(-c2cc(Cl)ccc2F)cc1-n1c(=O)n(CC(N)=O)c2ccccc21 [Al11] | 94.6
CN(C)c1ncnc(-c2ccc3nc(Nc4cc(CN5CCN(C(=O)CC(F)(F)F)CC5)ccn4)[nH]c3c2)c1Cl [BAY-440] | 78.1
O=C(NCC(=O)N1CCCC1)Nc1ccc2cnccc2c1 | 68.5
O=C(NNS(=O)(=O)c1ccccc1F)c1cc(F)cc(-c2ccccn2)c1 [WM-1119] | 40.5
CSc1cccnc1N1CCN(Cc2nc3ccccc3[nH]2)CC1 [A-769] | 59

System: Colon cancer organoid
Assay: Targeting of F14 CAF-induced therapy resistance in O14 CRC organoid-stroma co-culture. Cell viability is reported with Gefitinib.
Type: functional, Homo sapiens
Conditions: Homo sapiens, Concentration 10 uM; read-out: Cell Viability

SMILES | viability at 10 µM [%]
Cn1nc(C(=O)NCc2ccc(C(=O)O)cc2)cc1-c1ccc2[nH]ccc2c1 [BI 4395] | 62.1
CCNC(=O)c1cc2c(N3CCOC[C@@H]3C)ccnc2n1C | 36.3
CN(C)CCCOc1ccc(-c2cc(NCCCn3cccn3)nc(S(C)(=O)=O)n2)cc1 | 65.9
Cc1sc2c(c1C)C(c1ccc(Cl)cc1)=N[C@@H](CC(=O)OC(C)(C)C)c1nnc(C)n1-2 | 6.17
COc1cc(-c2cn(C)c(=O)c3cnccc23)c(OC)cc1CN(C)C | 53
O=C(O)c1cc(-c2ccc(C3CCNCC3)cc2)c2ccc(-c3ccc(C(F)(F)F)cc3)cc2c1 | 34.4
COc1ccc2c(c1)O[C@H](c1ccc(OC)c(OC)c1)C[C@@H]2NC(=O)C1(c2ccc3c(c2)OC(F)(F)O3)CC1 [A-1596584] | 48.4
Cn1cncc1[C@@](O)(COc1ccc(C#N)cc1-c1ccc(OC(F)(F)F)cc1)c1ccc(C#N)cc1 [A-108] | 47.8
CCN(C(=O)CO)[C@H]1CN(/C(=N\C#N)Nc2cccc(OC(F)F)c2)N=C1c1ccc(Cl)c(Cl)c1 | 62.2
Cc1sc2c(c1C)C(c1ccc(Cl)cc1)=N[C@@H](CC(=O)NCCCCCCCCNC(=O)COc1cccc3c1C(=O)N(C1CCC(=O)NC1=O)C3=O)c1nnc(C)n1-2 (stereo not given in full) | 2.25
COc1cccc(CNC(=O)c2nc3scc(CN(C)Cc4ccccc4)c3c(=O)[nH]2)c1 [T-26f] | 63.8
CN1CCN(c2cnc3c(C4CCN(C(=O)c5ccc(OC(F)(F)F)cc5N)CC4)ncnc3c2)CC1 [BAY-885] | 21.7
CC1=C(C#N)C(c2ccc3[nH]nc(C)c3c2)C(C#N)=C(C)N1 [BAY-474] | 7.78
CC(C)(O)c1cncc(-c2nc3ccc(F)cc3n2C2CC2)c1 [MSD-CYP11B2] | 39
COc1ccccc1C(=O)Nc1cc2c(cc1N1CCCC1)n(C)c(=O)n2C | 46.1
Cc1cnc(-c2cc(Cl)ccc2F)cc1-n1c(=O)n(CC(N)=O)c2ccccc21 [Al11] | 31.3
CN(C)c1ncnc(-c2ccc3nc(Nc4cc(CN5CCN(C(=O)CC(F)(F)F)CC5)ccn4)[nH]c3c2)c1Cl [BAY-440] | 68.9
O=C(NCC(=O)N1CCCC1)Nc1ccc2cnccc2c1 | 76.1
O=C(NNS(=O)(=O)c1ccccc1F)c1cc(F)cc(-c2ccccn2)c1 [WM-1119] | 19.4
CSc1cccnc1N1CCN(Cc2nc3ccccc3[nH]2)CC1 [A-769] | 36.4

System: Colon cancer organoid
Assay: Targeting of F14 CAF-induced therapy resistance in O14 CRC organoid-stroma co-culture. Cell viability is reported without Gefitinib.
Type: functional, Homo sapiens
Conditions: Homo sapiens, Concentration 10 uM; read-out: Cell Viability

SMILES | viability at 10 µM [%]
Cn1nc(C(=O)NCc2ccc(C(=O)O)cc2)cc1-c1ccc2[nH]ccc2c1 [BI 4395] | 95.3
CCNC(=O)c1cc2c(N3CCOC[C@@H]3C)ccnc2n1C | 70.2
CN(C)CCCOc1ccc(-c2cc(NCCCn3cccn3)nc(S(C)(=O)=O)n2)cc1 | 100
Cc1sc2c(c1C)C(c1ccc(Cl)cc1)=N[C@@H](CC(=O)OC(C)(C)C)c1nnc(C)n1-2 | 25.8
COc1cc(-c2cn(C)c(=O)c3cnccc23)c(OC)cc1CN(C)C | 95.6
O=C(O)c1cc(-c2ccc(C3CCNCC3)cc2)c2ccc(-c3ccc(C(F)(F)F)cc3)cc2c1 | 77
COc1ccc2c(c1)O[C@H](c1ccc(OC)c(OC)c1)C[C@@H]2NC(=O)C1(c2ccc3c(c2)OC(F)(F)O3)CC1 [A-1596584] | 74.5
Cn1cncc1[C@@](O)(COc1ccc(C#N)cc1-c1ccc(OC(F)(F)F)cc1)c1ccc(C#N)cc1 [A-108] | 108
CCN(C(=O)CO)[C@H]1CN(/C(=N\C#N)Nc2cccc(OC(F)F)c2)N=C1c1ccc(Cl)c(Cl)c1 | 125
Cc1sc2c(c1C)C(c1ccc(Cl)cc1)=N[C@@H](CC(=O)NCCCCCCCCNC(=O)COc1cccc3c1C(=O)N(C1CCC(=O)NC1=O)C3=O)c1nnc(C)n1-2 (stereo not given in full) | 3.56
COc1cccc(CNC(=O)c2nc3scc(CN(C)Cc4ccccc4)c3c(=O)[nH]2)c1 [T-26f] | 112
CN1CCN(c2cnc3c(C4CCN(C(=O)c5ccc(OC(F)(F)F)cc5N)CC4)ncnc3c2)CC1 [BAY-885] | 114
CC1=C(C#N)C(c2ccc3[nH]nc(C)c3c2)C(C#N)=C(C)N1 [BAY-474] | 90.1
CC(C)(O)c1cncc(-c2nc3ccc(F)cc3n2C2CC2)c1 [MSD-CYP11B2] | 107
COc1ccccc1C(=O)Nc1cc2c(cc1N1CCCC1)n(C)c(=O)n2C | 114
Cc1cnc(-c2cc(Cl)ccc2F)cc1-n1c(=O)n(CC(N)=O)c2ccccc21 [Al11] | 104
CN(C)c1ncnc(-c2ccc3nc(Nc4cc(CN5CCN(C(=O)CC(F)(F)F)CC5)ccn4)[nH]c3c2)c1Cl [BAY-440] | 114
O=C(NCC(=O)N1CCCC1)Nc1ccc2cnccc2c1 | 83.8
O=C(NNS(=O)(=O)c1ccccc1F)c1cc(F)cc(-c2ccccn2)c1 [WM-1119] | 41
CSc1cccnc1N1CCN(Cc2nc3ccccc3[nH]2)CC1 [A-769] | 73.4

System: Colon cancer organoid
Assay: Targeting of F14 CAF-induced therapy resistance in O23 CRC organoid-stroma co-culture. Cell viability is reported without Gefitinib.
Type: functional, Homo sapiens
Conditions: Homo sapiens, Concentration 10 uM; read-out: Cell Viability

SMILES | viability at 10 µM [%]
Cn1nc(C(=O)NCc2ccc(C(=O)O)cc2)cc1-c1ccc2[nH]ccc2c1 [BI 4395] | 124
CCNC(=O)c1cc2c(N3CCOC[C@@H]3C)ccnc2n1C | 104
CN(C)CCCOc1ccc(-c2cc(NCCCn3cccn3)nc(S(C)(=O)=O)n2)cc1 | 0.601
Cc1sc2c(c1C)C(c1ccc(Cl)cc1)=N[C@@H](CC(=O)OC(C)(C)C)c1nnc(C)n1-2 | 65.2
COc1cc(-c2cn(C)c(=O)c3cnccc23)c(OC)cc1CN(C)C | 55.4
O=C(O)c1cc(-c2ccc(C3CCNCC3)cc2)c2ccc(-c3ccc(C(F)(F)F)cc3)cc2c1 | 165
COc1ccc2c(c1)O[C@H](c1ccc(OC)c(OC)c1)C[C@@H]2NC(=O)C1(c2ccc3c(c2)OC(F)(F)O3)CC1 [A-1596584] | 111
Cn1cncc1[C@@](O)(COc1ccc(C#N)cc1-c1ccc(OC(F)(F)F)cc1)c1ccc(C#N)cc1 [A-108] | 131
CCN(C(=O)CO)[C@H]1CN(/C(=N\C#N)Nc2cccc(OC(F)F)c2)N=C1c1ccc(Cl)c(Cl)c1 | 84
Cc1sc2c(c1C)C(c1ccc(Cl)cc1)=N[C@@H](CC(=O)NCCCCCCCCNC(=O)COc1cccc3c1C(=O)N(C1CCC(=O)NC1=O)C3=O)c1nnc(C)n1-2 (stereo not given in full) | 6.5
COc1cccc(CNC(=O)c2nc3scc(CN(C)Cc4ccccc4)c3c(=O)[nH]2)c1 [T-26f] | 98.9
CN1CCN(c2cnc3c(C4CCN(C(=O)c5ccc(OC(F)(F)F)cc5N)CC4)ncnc3c2)CC1 [BAY-885] | 115
CC1=C(C#N)C(c2ccc3[nH]nc(C)c3c2)C(C#N)=C(C)N1 [BAY-474] | 115
CC(C)(O)c1cncc(-c2nc3ccc(F)cc3n2C2CC2)c1 [MSD-CYP11B2] | 144
COc1ccccc1C(=O)Nc1cc2c(cc1N1CCCC1)n(C)c(=O)n2C | 115
Cc1cnc(-c2cc(Cl)ccc2F)cc1-n1c(=O)n(CC(N)=O)c2ccccc21 [Al11] | 120
CN(C)c1ncnc(-c2ccc3nc(Nc4cc(CN5CCN(C(=O)CC(F)(F)F)CC5)ccn4)[nH]c3c2)c1Cl [BAY-440] | 160
O=C(NCC(=O)N1CCCC1)Nc1ccc2cnccc2c1 | 179
O=C(NNS(=O)(=O)c1ccccc1F)c1cc(F)cc(-c2ccccn2)c1 [WM-1119] | 121
CSc1cccnc1N1CCN(Cc2nc3ccccc3[nH]2)CC1 [A-769] | 111

From ChEMBL document CHEMBL5608113, “Targeting of CAF-induced therapy resistance in CRC organoid-stroma co-cultures” (2024)
